According to US10125356B2, “Enzymatic methods and enzymes” (Givaudan SA, priority 2007, dated 2018):
Peptide text beside a SMILES is read from it. * marks the point of attachment. Cbz = O=C(OCc1ccccc1)*

Key:
[1] = test system: Ax20 peptidase (SEQ ID NO: 2); test: Inhibition of Pro-Gly cleavage by recombinant Ax20 peptidase, fluorescamine detection of free NH2; format: biochemical, Corynebacterium sp. Ax20; details: Pro-Gly 1 mM, 1 μg/ml peptidase, 60 min at 37° C.
Method: Cleavage of the peptide substrate Pro-Gly by addition of the recombinant Ax20 peptidase (SEQ ID NO: 2) released a unique free NH2 group which can be derivatized by fluorescamine (Fluram™, Fluka, Buchs, Switzerland). Test compounds (for example, potential enzyme inhibitors) are dissolved in dimethylsulfoxid (DMSO), for example in individual wells of a microtiter plate. […] Controls are run in parallel and subjected to the same procedure. A positive control contains DMSO without inhibitor, a negative control contains no substrate.

[2] = test system: peptidase (SEQ ID NO:2) and β-lyase; test: Inhibition of free SH release from S-benzyl-cys-gly by peptidase plus β-lyase, monobromobimane detection; format: biochemical, Corynebacterium sp. Ax20; details: peptidase 0.1 μg/ml, β-lyase 5 μg/ml
Method: For the results shown below (S-benzyl)-cys-gly was used.
Instead of derivatising the free NH2 group of the conjugate by adding Fluram, the free SH group released from the conjugate by the subsequent action of both enzymes was derivatised by adding monobromobimane (Fluka, Buchs, Switzerland) dissolved in a NaCO3 buffer (100 mM, pH 8.8) to give a final concentration of 0.5 mM to 1 mM. After 5 to 15 min incubation the fluorescence was measured on a Flex-station (Molecular devices, Sunnyvale, Calif., USA) with an excitation wavelength of 385 nm and an emission wavelength of 480 nm.

[3] = target: T1, AMRE enzyme (Nα-acyl-glutamine-aminoacylase) (Corynebacterium striatum, UniProt Q8GGD4); test: Inhibition of AMRE-catalysed release of free NH2 groups from N-Lauroyl-glutamine; format: biochemical
T1 construct: made in house
T1 sequence (Q8GGD4 whole entry): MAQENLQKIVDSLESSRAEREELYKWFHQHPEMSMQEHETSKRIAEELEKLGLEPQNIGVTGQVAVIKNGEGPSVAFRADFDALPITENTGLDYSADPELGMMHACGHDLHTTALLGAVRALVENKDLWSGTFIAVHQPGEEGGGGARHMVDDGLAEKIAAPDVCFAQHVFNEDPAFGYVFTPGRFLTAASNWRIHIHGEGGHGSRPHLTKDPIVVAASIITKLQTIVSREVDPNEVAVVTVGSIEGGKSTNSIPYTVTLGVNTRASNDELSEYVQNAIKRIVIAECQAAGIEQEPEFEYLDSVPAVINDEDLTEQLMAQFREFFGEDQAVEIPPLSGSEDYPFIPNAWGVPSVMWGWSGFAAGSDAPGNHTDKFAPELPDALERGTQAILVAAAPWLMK
Method: In an additional step to example 7 or 8, the identified peptidase inhibitors were tested for their modulating effect against the AMRE enzyme (Nα-acyl-glutamine-aminoacylase described by Natsch in EP1258531), thereby identifying dual inhibitors of both metallopeptidase enzymes involved in malodour release.
AMRE is formed as described in example 6 of EP1258531.

Ax20 peptidase = test: Substrate specificity of recombinant Ax20 peptidase, cleavage by thin layer chromatography; format: biochemical, Corynebacterium sp. Ax20; set-up: key: (+++) indicating >80% cleavage of a 1 mM solution by 0.1 μg/ml peptidase during an incubation for 1 h; (++) indicates complete cleavage of a 1 mM solution by 1 μg/ml peptidase during an incubation for 1 h; (+) indicates partial cleavage (20-80%) of a 1 mM solution by 1 μg/ml peptidase during an incubation for 1 h; (−) indicating the absence of any cleavage; details: 1 mM solution, 0.1 or 1 μg/ml peptidase, incubation 1 h
Method: The recombinant Ax20 peptidase formed as described in example 3 (affinity column purified tagged enzyme) was incubated with different compounds, in particular potential candidate dipeptide substrates, to characterize the substrate specificity and to identify substrates useful for screening assays (for example to screen for modulators including inhibitors).
The table below lists the tested compounds (mostly dipeptides indicated by their short names, e.g. ala-gly for an alanine-glycine dipeptide) and indicates whether they are cleaved by the peptidase. Z indicates a benzyloxy-carbonyl protecting group at the N-terminus of the peptide.
Cleavage was determined by thin layer chromatography.
Amounts are qualitative with (+++) indicating >80% cleavage of a 1 mM solution by 0.1 μg/ml peptidase during an incubation for 1 h; (++) indicates complete cleavage of a 1 mM solution by 1 μg/ml peptidase during an incubation for 1 h and (+) indicates partial cleavage (20-80%) of a 1 mM solution by 1 μg/ml peptidase during an incubation for 1 h and (−) indicating the absence of any cleavage.

β-lyase = target: T2, β-lyase (Corynebacterium striatum, UniProt Q64HC5); test: Cleavage of conjugates by β-lyase, release of 3-sulfanyl-3-methyl-hexanol by gas chromatography; format: biochemical, Corynebacterium sp. Ax20; details: conjugate 1 mM incubated with β-lyase
T2 construct: made in house
T2 sequence (Q64HC5 whole entry): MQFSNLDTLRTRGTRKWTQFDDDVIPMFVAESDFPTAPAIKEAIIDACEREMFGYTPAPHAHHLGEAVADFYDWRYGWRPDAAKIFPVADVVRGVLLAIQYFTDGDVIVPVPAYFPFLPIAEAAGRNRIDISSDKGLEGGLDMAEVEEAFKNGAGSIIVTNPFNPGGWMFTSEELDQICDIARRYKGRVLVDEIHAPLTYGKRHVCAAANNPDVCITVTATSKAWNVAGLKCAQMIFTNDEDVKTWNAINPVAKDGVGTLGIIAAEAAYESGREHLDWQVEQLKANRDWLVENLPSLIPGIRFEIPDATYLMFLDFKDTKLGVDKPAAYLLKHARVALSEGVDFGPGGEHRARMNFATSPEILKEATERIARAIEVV
Method: The test compounds (Cys-conjugate (1 mM) or Cys-Gly-conjugate (1 mM)) were incubated with β-lyase.
(§1) Cleavage was measured by gas chromatography to determine the release of 3-sulfanyl-3-methyl-hexanol in mM.

C. sp. Ax 20 extract = test: Cleavage of conjugates by Corynebacterium sp. Ax20 cellular extract, release of 3-sulfanyl-3-methyl-hexanol by gas chromatography; format: biochemical; details: conjugate 1 mM incubated with C. sp. Ax 20 extract for 24 h
Method: The test compounds (cys-conjugate (1 mM) or cys-gly-conjugate (1 mM)) were incubated also with the wild-type strain Corynebacterium sp. Ax20 extract naturally containing the peptidase of SEQ ID NO:2. Corynebacterium sp. Ax20 cellular extract was prepared as described in example 1. The resulting extract was diluted to the same volume as the original culture has had when adjusted to an optical density of OD 4. The substrate was incubated with the extract for 24 h.
as §1

C. sp. Ax20 extract = test: Inhibition of malodourant release by C. sp. Ax20 extract; format: biochemical, Corynebacterium sp. Ax20; details: o-phenantrolin 0.5 mM, Complete at manufacturer's use concentration, 10 min pre-incubation
Method: (§2) Extracts from C. sp. Ax20 and C. jeikeium K411 were formed as described in example 1.
(§3) O-phenantrolin (0.5 mM), a metallopeptidase inhibitor, or Complete™ (EDTA free), a protease inhibitor mix (Roche biochemicals, Switzerland; use concentration as indicated by the manufacturer) that contains broad specificity serine and […] inhibitors but no metallopeptidase inhibitors were added to batches of the extracts and incubated for 10 min.
(§4) The cys-conjugate or the cys-gly-conjugate (1 mM), both precursors for the malodourant 3-sulfanyl-3-methyl-hexanol, were then added to the C. sp. Ax20 or C. jeikeium K411 extracts containing the different inhibitors.
(§5) The release of the malodourant 3-sulfanyl-3-methyl-hexanol, which indicates enzyme activity in the Corynebacteria cell lysates, was measured as described in examples 12 and 13.
(§6) The results (in % inhibition of 3-sulfanyl-3-methyl-hexanol release compared to reactions without added inhibitors) are indicated in the table below.

C. jeikeium K411 extract = test: Inhibition of malodourant release by C. jeikeium K411 extract; format: biochemical, Corynebacterium jeikeium K411; details: o-phenantrolin 0.5 mM, Complete at manufacturer's use concentration, 10 min pre-incubation
Method: as §2, §3, §4, §5, §6

Structure (SMILES)	Inhibition of release of free NH2 groups from Pro-Gly ([1]; test compound 15.625 microM)	Inhibition of release of free NH2 groups from Pro-Gly ([1]; test compound 31.25 microM)	Inhibition of release of free NH2 groups from Pro-Gly ([1]; test compound 62.5 microM)	Inhibition of release of free SH groups from S-benzyl-cys-gly in presence of peptidase and β-lyase ([2]; test compound 15.625 microM)	Inhibition of release of free SH groups from S-benzyl-cys-gly in presence of peptidase and β-lyase ([2]; test compound 31.25 microM)	Inhibition of release of free SH groups from S-benzyl-cys-gly in presence of peptidase and β-lyase ([2]; test compound 62.5 microM)	Inhibition of release of free NH2 groups from N-Lauroyl-glutamine (catalyzed by AMRE) ([3]; test compound 15.625 microM)	Inhibition of release of free NH2 groups from N-Lauroyl-glutamine (catalyzed by AMRE) ([3]; test compound 31.25 microM)	Inhibition of release of free NH2 groups from N-Lauroyl-glutamine (catalyzed by AMRE) ([3]; test compound 62.5 microM)	Cleavage (Ax20 peptidase)	also measured
O=C(O)CSCCSCC(=O)O [2,2′-Ethylendithio-diacetic acid]	0.1 % inhibition	−2.6 % inhibition	−5.3 % inhibition	−10.1 % inhibition	−9.1 % inhibition	−8.7 % inhibition	22.4 % inhibition	12.7 % inhibition	19.6 % inhibition		
CC(N)C(=O)NC(C)C(=O)O (centres unmarked) [Ala-Ala]										++	
CC(N)C(=O)NCC(=O)O (centres unmarked) [Ala-Gly]										++	
O=C(O)CN(CCN(CC(=O)O)CC(=O)O)CC(=O)O [Ethylenediaminetetraacetic acid]	101.0 % inhibition	102.6 % inhibition	101.4 % inhibition	99.3 % inhibition	96.5 % inhibition	99.0 % inhibition	62.4 % inhibition	59.8 % inhibition	61.6 % inhibition		
NCC(=O)NCC(=O)O [Gly-Gly] (H-Gly-Gly-OH)										+ ((+) indicates partial cleavage (20-80%) of a 1 mM solution by 1 μg/ml peptidase during an incubation for 1 h)	
NC(CSCc1ccccc1)C(=O)NCC(=O)O (centres unmarked) [H-Cys(Bzl)-Gly-OH, S-benzyl-Cys-Gly]										+++ ((+++) indicating >80% cleavage of a 1 mM solution by 0.1 μg/ml peptidase during an incubation for 1 h)	
O=C(O)CNC(=O)C1CCCN1 (centres unmarked) [Pro-Gly]										+ ((+) indicates partial cleavage (20-80%) of a 1 mM solution by 1 μg/ml peptidase during an incubation for 1 h)	
C[C@H](NC(=O)OCc1ccccc1)C(=O)O [Z-Ala]										−	
O=C(O)CNC(=O)CNC(=O)OCc1ccccc1 [Z-Gly-Gly] (Cbz-Gly-Gly-OH)										−	
O=C(O)CNC(=O)OCc1ccccc1 [Z-Gly]										−	
CCCC(C)(CCO)SC[C@H](N)C(=O)O (some centres unmarked) [cys-conjugate]											release of 3-sulfanyl-3-methyl-hexanol from the conjugate (β-lyase): 0.59 mM; release of 3-sulfanyl-3-methyl-hexanol from the conjugate (C. sp. Ax 20 extract): 0.31 mM
O=C(O)CNCCNCC(=O)O [ethylendiamine-N,N′-diacetic acid]	65.7 % inhibition	81.0 % inhibition	93.9 % inhibition	50.2 % inhibition	73.1 % inhibition	90.4 % inhibition	7.4 % inhibition	7.2 % inhibition	42.7 % inhibition		
c1cnc2c(c1)ccc1cccnc12 [o-Phenantrolin]	83.9 % inhibition	95.5 % inhibition	100.0 % inhibition	54.2 % inhibition	79.9 % inhibition	93.1 % inhibition	42.4 % inhibition	81.8 % inhibition	96.1 % inhibition		% inhibition of 3-sulfanyl-3-methyl-hexanol release compared to reactions without added inhibitors (C. sp. Ax20 extract; substrate Cys-Gly-conj. 1 mM): 100 % inhibition; % inhibition of 3-sulfanyl-3-methyl-hexanol release compared to reactions without added inhibitors (C. sp. Ax20 extract; substrate Cys-conj. 1 mM): 0 % inhibition; % inhibition of 3-sulfanyl-3-methyl-hexanol release compared to reactions without added inhibitors (C. jeikeium K411 extract; substrate Cys-Gly-conj. 1 mM): 93 % inhibition; % inhibition of 3-sulfanyl-3-methyl-hexanol release compared to reactions without added inhibitors (C. jeikeium K411 extract; substrate Cys-conj. 1 mM): 13 % inhibition
O=C(O)c1cccc(C(=O)O)n1 [pyridine-2,6-dicarboxylic acid]	72.4 % inhibition	92.4 % inhibition	100.9 % inhibition	49.6 % inhibition	83.4 % inhibition	95.9 % inhibition	28.8 % inhibition	52.0 % inhibition	72.2 % inhibition		
